These results are taken from patent US20250092065A1, “2-(INDAZOL-5-YL)-6-(PIPERIDIN-4-YL)-1,7-NAPHTHYRIDINE DERIVATIVES AND RELATED COMPOUNDS AS MODULATORS FOR SPLICING NUCLEIC ACIDS AND FOR THE TREATMENT OF PROLIFERATIVE DISEASES” (REMIX THERAPEUTICS INC., priority 2022, published 2025).

Molecules are shown by their SMILES. Where two headings read alike, the source gives them in different places.

For one data set, the system named is Target C. Briefly: RT-qPCR canonical junction panel assay, Target C mRNA. In kind it is cell-based. Particulars: Table 4, read-out: Target C IC50 (decrease in CJ mRNA levels). An outline of the steps: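 IC50 is the concentration giving 50% CJ decrease, from a 4-parameter logistic fit of percent response; response derived from ΔΔCt against housekeeper and DMSO over a fixed ΔCt window, with canonical exon-junction qPCR in compound-treated K562 or A673 cells.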

The next data set concerns K562 cells. Briefly: Cell Titer Glo 2.0 cell viability (toxicity) assay, K562. Particulars: 500 cells/well, 72 hours.
In a further data set the test system is HTT mRNA. Briefly: RT-qPCR splicing assay, HTT mRNA canonical (CJ) and alternative (AJ) junction. In kind it is cell-based, human. The following applies: Homo sapiens; for AC50: HTT alternative junction mRNA, read-out: HTT AJ (increase in AJ mRNA, AC50). The gist of the method:
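Both isoforms, CJ and AJ, read by qPCR from crude lysates of treated A673 or K562 cells; 24 h, 37 °C, maximum 10 uM. Normalization: housekeeper ΔCt, then DMSO ΔΔCt.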

[1] abbreviates: HTT canonical junction mRNA, RT-qPCR, read-out: HTT CJ (decrease in CJ mRNA levels, IC50).
Where [2] appears, read: canonical junction qPCR panel, Table 4, read-out: HTT IC50 (decrease in CJ mRNA levels).

With `CN[C@H]1CCN(c2ccc3nc(-c4cc(F)c5nc(C)cn5c4)ncc3n2)C1` [Compound 332, (S)-1-(2-(8-fluoro-2-methylimidazo[1,2-a]pyridin-6-yl)pyrido[3,2-d]pyrimidin-6-yl)-N-methylpyrrolidin-3-amine], the IC50 in the data set with Target C, in the data set on HTT mRNA (setting [1]) and with HTT mRNA (setting [2]) was 100 to 1000 nM each time. In the data set with K562 cells, the “Effect of Exemplary Compounds on Cell Viability, K562” value (“Effect of Exemplary Compounds” for short) is reported as “B (B represents 100-1000 nM)”. The AC50 with HTT mRNA (RT-qPCR) lay within 100 to 1000 nM.

Consider `CC(C)(C)NC1CCN(c2ccc3nc(-c4cc5oc(C6CC6)nc5cc4O)ccc3n2)C1` (stereo not shown) [Compound 333, 6-{6-[3-(tert-butylamino)pyrrolidin-1-yl]-1,5-naphthyridin-2-yl}-2-cyclopropyl-1,3-benzoxazol-5-ol], for which the IC50 in the data set with Target C, with HTT mRNA (setting [1]) and with HTT mRNA (setting [2]) was 100 to 1000 nM throughout. Moreover, the “Effect of Exemplary Compounds” value with K562 cells was “B (B represents 100-1000 nM)”. Moreover, the AC50 in the data set on HTT mRNA (RT-qPCR) lay in the range of 100 to 1000 nM.

`COCc1nc2cc(O)c(-c3ccc4nc(N5CCC(NC(C)(C)C)C5)ccc4n3)cc2o1` (stereo not shown) [Compound 334, 6-{6-[3-(tert-butylamino)pyrrolidin-1-yl]-1,5-naphthyridin-2-yl}-2-(methoxymethyl)-1,3-benzoxazol-5-ol]: the IC50 in the data set on Target C, with HTT mRNA (setting [1]) and in the data set on HTT mRNA (setting [2]) was 100 to 1000 nM throughout. Further, in the data set with K562 cells, the “Effect of Exemplary Compounds” value is given as “B (B represents 100-1000 nM)”. The AC50 in the data set with HTT mRNA (RT-qPCR) lay within 100 to 1000 nM.

As for `COc1cc2nc(C3COC3)oc2cc1-c1ccc2nc(N3CCC(NC(C)(C)C)C3)ccc2n1` (stereo not shown) [Compound 335], the IC50 in the data set on Target C, with HTT mRNA (setting [1]) and with HTT mRNA (setting [2]) was 1000 to 10000 nM throughout. Moreover, the “Effect of Exemplary Compounds” value in the data set with K562 cells is given as “C (C represents 1000-9999 nM)”. Further, the AC50 with HTT mRNA (RT-qPCR) lay within 1000 to 10000 nM.

As to `CC(C)(C)NC1CCN(c2ccc3nc(-c4cc5oc(CO)nc5cc4O)ccc3n2)C1` (stereo not shown) [Compound 336, 6-{6-[3-(tert-butylamino)pyrrolidin-1-yl]-1,5-naphthyridin-2-yl}-2-(hydroxymethyl)-1,3-benzoxazol-5-ol], the IC50 was 100 to 1000 nM in the data set with Target C, less than 100 nM in the data set with HTT mRNA (setting [1]) and less than 100 nM in the data set with HTT mRNA (setting [2]). Further, the “Effect of Exemplary Compounds” value with K562 cells is given as “A (A represents <100 nM)”. The AC50 in the data set with HTT mRNA (RT-qPCR) fell in the range of 100 to 1000 nM.

In the case of `CNC1CCN(c2ccc3nc(-c4cc5cn(C)nc5c(C)c4O)ncc3n2)C1` (stereo not shown) [Compound 337, 2,7-dimethyl-5-{6-[3-(methylamino)pyrrolidin-1-yl]pyrido[3,2-d]pyrimidin-2-yl}indazol-6-ol], the values for the IC50 with Target C, in the data set on HTT mRNA (setting [1]) and in the data set on HTT mRNA (setting [2]) were more than 10000 nM, 100 to 1000 nM and 100 to 1000 nM, respectively. The “Effect of Exemplary Compounds” value in the data set on K562 cells is “A (A represents <100 nM)”. In addition, the AC50 in the data set with HTT mRNA (RT-qPCR) is 100 to 1000 nM.

In the case of `Cc1c(O)c(-c2ncc3nc(N4CCNCC4)ccc3n2)cc2cn(C)nc12` [Compound 338, 2,7-dimethyl-5-[6-(piperazin-1-yl)pyrido[3,2-d]pyrimidin-2-yl]indazol-6-ol], the IC50 with Target C lay in the range of 1000 to 10000 nM; in the data set on HTT mRNA (setting [1]) it was 100 to 1000 nM; with HTT mRNA (setting [2]), 100 to 1000 nM. Moreover, in the data set with K562 cells, the “Effect of Exemplary Compounds” value is “B (B represents 100-1000 nM)”. For the same compound, the AC50 with HTT mRNA (RT-qPCR) fell in the range of 1000 to 10000 nM.

Turning to `Cc1nc2cc(O)c(-c3ccc4nc(N5CCC(NC(C)(C)C)C5)ccc4n3)cc2n1C` (stereo not shown) [Compound 339, 6-{6-[3-(tert-butylamino)pyrrolidin-1-yl]-1,5-naphthyridin-2-yl}-1,2-dimethyl-1,3-benzodiazol-5-ol], the IC50 with Target C, in the data set on HTT mRNA (setting [1]) and in the data set on HTT mRNA (setting [2]) was 100 to 1000 nM in each case. Moreover, the “Effect of Exemplary Compounds” value in the data set on K562 cells is given as “B (B represents 100-1000 nM)”. For the same compound, in the data set on HTT mRNA (RT-qPCR), the AC50 was in the range of 100 to 1000 nM.

For `Cc1nc2cc(-c3ccc4nc(N5CCC(NC(C)(C)C)C5)ccc4n3)c(O)cc2n1C` (stereo not shown) [Compound 340, 6-{6-[3-(tert-butylamino)pyrrolidin-1-yl]-1,5-naphthyridin-2-yl}-2,3-dimethyl-1,3-benzodiazol-5-ol], the IC50 in the data set on Target C, with HTT mRNA (setting [1]) and in the data set with HTT mRNA (setting [2]) was 100 to 1000 nM in each case. The “Effect of Exemplary Compounds” value in the data set on K562 cells is “A (A represents <100 nM)”. In addition, the AC50 with HTT mRNA (RT-qPCR) is 100 to 1000 nM.

For the compound `Cn1cc2cc(-c3ccc4nc(N5CCC(NC67CC(O)(C6)C7)C5)ccc4n3)c(O)cc2n1` (stereo not shown) [Compound 341, 5-{6-[3-({3-hydroxybicyclo[1.1.1]pentan-1-yl}amino)pyrrolidin-1-yl]-1,5-naphthyridin-2-yl}-2-methylindazol-6-ol], the IC50 with Target C, in the data set on HTT mRNA (setting [1]) and with HTT mRNA (setting [2]) was 100 to 1000 nM each time. Besides, the “Effect of Exemplary Compounds” value in the data set with K562 cells is reported as “B (B represents 100-1000 nM)”. In the data set with HTT mRNA (RT-qPCR), the AC50 lay within 100 to 1000 nM.

Consider `Cc1c(O)c(-c2ncc3nc(N4CCC5(CCN5)C4)ccc3n2)cc2cn(C)nc12` (stereo not shown) [Compound 342, 5-(6-{1,6-diazaspiro[3.4]octan-6-yl}pyrido[3,2-d]pyrimidin-2-yl)-2,7-dimethylindazol-6-ol], for which the IC50 in the data set with Target C, in the data set with HTT mRNA (setting [1]) and in the data set with HTT mRNA (setting [2]) was 100 to 1000 nM throughout. Also, in the data set with K562 cells, the “Effect of Exemplary Compounds” value was “B (B represents 100-1000 nM)”. The AC50 in the data set on HTT mRNA (RT-qPCR) was 100 to 1000 nM.

Take `Cc1cc2nc(-c3ccc4nc(N5CCC(NC(C)(C)C)C5)ccc4n3)cn2c(C)n1` (stereo not shown) [Compound 344, N-tert-butyl-1-(6-{5,7-dimethylimidazo[1,2-c]pyrimidin-2-yl}-1,5-naphthyridin-2-yl)pyrrolidin-3-amine]: the IC50 is more than 10000 nM in the data set with Target C, 1000 to 10000 nM in the data set with HTT mRNA (setting [1]) and 1000 to 10000 nM in the data set with HTT mRNA (setting [2]). The “Effect of Exemplary Compounds” value in the data set on K562 cells was “D (D represents greater than 10 μM in K562 cells)”. For the same compound, the AC50 with HTT mRNA (RT-qPCR) fell in the range of 1000 to 10000 nM.

Take `CCc1nc2cc(O)c(-c3ccc4nc(N5CCC(NC(C)(C)C)C5)ccc4n3)cc2o1` (stereo not shown) [Compound 346, 6-{6-[3-(tert-butylamino)pyrrolidin-1-yl]-1,5-naphthyridin-2-yl}-2-ethyl-1,3-benzoxazol-5-ol]: the IC50 in the data set with Target C, with HTT mRNA (setting [1]) and in the data set with HTT mRNA (setting [2]) was 1000 to 10000 nM throughout. Further, the “Effect of Exemplary Compounds” value in the data set with K562 cells was “C (C represents 1000-9999 nM)”. Besides, the AC50 in the data set with HTT mRNA (RT-qPCR) was in the range of 1000 to 10000 nM.

For `Cc1nc2cc(O)c(-c3ccc4nc(N5CC[C@H](N[C@H]6C[C@H](F)C6)C5)ccc4n3)cc2o1` [Compound 350, 2-methyl-6-{6-[(3S)-3-{[(1r,3r)-3-fluorocyclobutyl]amino}pyrrolidin-1-yl]-1,5-naphthyridin-2-yl}-1,3-benzoxazol-5-ol], the IC50 with Target C was 100 to 1000 nM; with HTT mRNA (setting [1]), less than 100 nM; with HTT mRNA (setting [2]) it was less than 100 nM. Also, the “Effect of Exemplary Compounds” value in the data set on K562 cells is listed as “B (B represents 100-1000 nM)”. The AC50 in the data set with HTT mRNA (RT-qPCR) was less than 100 nM.
